Assay results from PMC10341786 (International Journal of Molecular Sciences, 2023).

What was measured:
WNV = assay: microbe, parasite or virus in culture; format: cell-based, West Nile virus strain Strix nebulosa-12; settings: for EC50: West Nile virus, Vero, read-out: WNV EC50
in vitro [1] = settings: African green monkey
in vitro [2] = settings: African green monkey; remark: listed apart in the source
in vitro [3] = settings: pig
TBEV = assay: microbe, parasite or virus in culture; format: cell-based, Tick-borne encephalitis virus strain Absettarov; settings: Tick-borne encephalitis virus, PEK, read-out: TBEV EC50
in vitro [4] = settings: pig; remark: listed apart in the source

Compound | EC50 (WNV) [µM] | CC50 (in vitro [1]) [µM] | CC50 (in vitro [2]) [µM] | CC50 (in vitro [3]) [µM] | EC50 (TBEV) [µM] | melting point [°C] | CC50 (in vitro [4]) [µM] | anti-WNV activity (in words) (WNV)
NC(=O)c1nc(F)c[nH]c1=O [Favipiravir, reference compound] | 102 ± 28 | > 1000 | > 1000 | > 1000 |  |  |  | 
O=S(=O)(c1ccc2ccccc2c1)N(C1=NOC2CCCCCCC12)S(=O)(=O)c1ccc2ccccc2c1 (stereo not drawn) [5j, N-(Naphthalen-2-ylsulfonyl)-N-(3a,4,5,6,7,8,9,9a-octahydrocycloocta[d]isoxazol-3-yl)naphthalene-2-sulfonamide] | 5.9 ± 1.8 | > 50 | > 50 | > 50 | 10 ± 2.4 | 160 to 162 | > 50 | 
O=S(=O)(c1ccccc1)N(C1=NOC2CCCCCCC12)S(=O)(=O)c1ccccc1 (stereo not drawn) [5c, N-(3a,4,5,6,7,8,9,9a-Octahydrocycloocta[d]isoxazol-3-yl)-N-(phenylsulfonyl)benzenesulfonamide] | 18 ± 4 | > 50 | > 50 | > 50 | > 50 | 107 to 108 | > 50 | 
Cc1ccc(S(=O)(=O)NC2=NOC3(CCCCCCC3)C2)cc1 [3d] | 14 ± 5 | > 50 | > 50 | > 50 | > 50 |  | > 50 | 
O=[N+]([O-])c1ccccc1S(=O)(=O)NC1=NOC2(CCCCCCC2)C1 [3h] | 21.5 ± 0.9 | > 50 | > 50 | > 50 | 28 ± 7 |  | > 50 | 
Cc1cc(C)c(S(=O)(=O)N(C2=NOC3CCCCCCC23)S(=O)(=O)c2c(C)cc(C)cc2C)c(C)c1 (stereo not drawn) [5e, N-(Mesitylsulfonyl)-2,4,6-trimethyl-N-(3a,4,5,6,7,8,9,9a-octahydrocycloocta[d]isoxazol-3-yl)benzenesulfonamide] | 4 ± 0.6 | > 50 | > 50 | > 50 | 10 ± 5 | 148 to 149 | > 50 | 
Cc1ccc(S(=O)(=O)N(C2=NOC3(CCCCCCC3)C2)S(=O)(=O)c2ccc(C)cc2)cc1 [4d, 4-Methyl-N-(1-oxa-2-azaspiro[4.7]dodec-2-en-3-yl)-N-tosylbenzenesulfonamide] | 3 ± 1.9 | > 50 | > 50 | > 50 | 21 ± 13 | 151 to 153 | > 50 | 
O=S(=O)(c1ccc2c(c1)OCCO2)N(C1=NOC2(CCCCCCC2)C1)S(=O)(=O)c1ccc2c(c1)OCCO2 [4f, N-((2,3-Dihydrobenzo[b][1, 4]dioxin-6-yl)sulfonyl)-N-(1-oxa-2-azaspiro[4.7]dodec-2-en-3-yl)-2,3-dihydrobenzo[b][1, 4]dioxine-6-sulfonamide] | 7.1 ± 1 | > 50 | > 50 | > 50 | 13 ± 6 | 191 to 193 | > 50 | 
O=S(=O)(c1ccc2c(c1)OCCO2)N(C1=NOC2CCCCCCC12)S(=O)(=O)c1ccc2c(c1)OCCO2 (stereo not drawn) [5f, N-((2,3-Dihydrobenzo[b][1, 4]dioxin-6-yl)sulfonyl)-N-(3a,4,5,6,7,8,9,9a-octahydrocycloocta[d]isoxazol-3-yl)-2,3-dihydrobenzo[b][1, 4]dioxine-6-sulfonamide] | 16 ± 10 | > 50 | > 50 | > 50 | 29 ± 7 | 129 to 130 | > 50 | 
O=[N+]([O-])c1ccccc1S(=O)(=O)N(C1=NOC2CCCCCCC12)S(=O)(=O)c1ccccc1[N+](=O)[O-] (stereo not drawn) [5h, 2-Nitro-N-((2-nitrophenyl)sulfonyl)-N-(3a,4,5,6,7,8,9,9a-octahydrocycloocta[d]isoxazol-3-yl)benzenesulfonamide] | 17 ± 3 |  |  | > 50 | 12 ± 6 | 153 to 154 | > 50 | 
O=S(=O)(c1cccs1)N(C1=NOC2(CCCCCCC2)C1)S(=O)(=O)c1cccs1 [4k, N-(1-Oxa-2-azaspiro[4.7]dodec-2-en-3-yl)-N-(thiophen-2-ylsulfonyl)thiophene-2-sulfonamide] | 10 ± 4 | > 50 | > 50 | > 50 | > 50 | 147 | > 50 | 
Nc1onc(C(=O)OCC23CC4CC(CC(C4)C2)C3)c1CCc1ccccc1 [compound 6, reference compound] |  |  | > 100 | > 100 | 2.29 ± 0.17 |  | > 100 | 
O=S(=O)(NC1=NOC2(CCCCCCC2)C1)c1ccccc1 [3c] | 25 ± 7 | > 50 | > 50 | > 50 | > 50 |  | > 50 | 
O=S(=O)(c1ccc(F)cc1F)N(C1=NOC2CCCCCCC12)S(=O)(=O)c1ccc(F)cc1F (stereo not drawn) [5g, N-((2,4-difluorophenyl)sulfonyl)-2,4-difluoro-N-(3a,4,5,6,7,8,9,9a-octahydrocycloocta[d]isoxazol-3-yl)benzenesulfonamide] | 12 ± 6 | > 50 | > 50 | > 50 | 33 ± 15 | 129 to 131 | > 50 | 
O=S(=O)(c1ccccc1)N(C1=NOC2(CCCCCCC2)C1)S(=O)(=O)c1ccccc1 [4c, N-(Phenylsulfonyl)-N-(1-oxa-2-azaspiro[4.7]dodec-2-en-3-yl)benzenesulfonamide] | 2.6 ± 1.4 | > 50 | > 50 | > 50 | 9 ± 2 | 139 to 141 | > 50 | 
O=S(=O)(c1ccc2ccccc2c1)N(C1=NOC2(CCCCCCC2)C1)S(=O)(=O)c1ccc2ccccc2c1 [4j, N-(Naphthalen-2-ylsulfonyl)-N-(1-oxa-2-azaspiro[4.7]dodec-2-en-3-yl)naphthalene-2-sulfonamide] | 1.3 ± 0.5 | > 50 | > 50 | > 50 | 17 ± 3 | 160 to 161 | > 50 | 
Cc1cc(C)c(S(=O)(=O)NC2=NOC3(CCCCCCC3)C2)c(C)c1 [3e] | 22 ± 4 | > 50 | > 50 | > 50 | 18 ± 7 |  | > 50 | 
O=S(=O)(c1ccc(F)cc1F)N(C1=NOC2(CCCCCCC2)C1)S(=O)(=O)c1ccc(F)cc1F [4g, N-((2,4-Difluorophenyl)sulfonyl)-2,4-difluoro-N-(1-oxa-2-azaspiro[4.7]dodec-2-en-3-yl)benzenesulfonamide] | 9.8 ± 2.6 | > 50 | > 50 | > 50 | > 50 | 61 to 62 | > 50 | 
Cc1ccc(S(=O)(=O)N(C2=NOC3CCCCCCC23)S(=O)(=O)c2ccc(C)cc2)cc1 (stereo not drawn) [5d, 4-Methyl-N-(3a,4,5,6,7,8,9,9a-octahydrocycloocta[d]isoxazol-3-yl)-N-tosylbenzenesulfonamide] | 14 ± 8 | > 50 | > 50 | > 50 | 34 ± 4 | 113 to 114 | > 50 | 
O=S(=O)(NC1=NOC2(CCCCCCC2)C1)c1ccc2c(c1)OCCO2 [3f] | 18 ± 6 | > 50 | > 50 | > 50 | > 50 |  | > 50 | 
CS(=O)(=O)N(C1=NOC2(CCCCCCC2)C1)S(C)(=O)=O [4a, N-(Methylsulfonyl)-N-(1-oxa-2-azaspiro[4.7]dodec-2-en-3-yl)methanesulfonamide] | 10 ± 6 | > 50 | > 50 | > 50 | 27 ± 12 | 139 to 141 | > 50 | 
O=S(=O)(c1cccnc1)N(C1=NOC2CCCCCCC12)S(=O)(=O)c1cccnc1 (stereo not drawn) [5l, N-(3a,4,5,6,7,8,9,9a-Octahydrocycloocta[d]isoxazol-3-yl)-N-(pyridin-3-ylsulfonyl)pyridine-3-sulfonamide] | > 50 | > 50 | > 50 | > 50 | 36 ± 4 | 150 to 151 | > 50 | complete loss of anti-WNV activity
O=S(=O)(c1cccnc1)N(C1=NOC2(CCCCCCC2)C1)S(=O)(=O)c1cccnc1 [4l, N-(Pyridin-3-ylsulfonyl)-N-(1-oxa-2-azaspiro[4.7]dodec-2-en-3-yl)pyridine-3-sulfonamide] | 8 ± 4 | > 50 | > 50 | > 50 | 15 ± 4 | 151 to 152 | > 50 | 
Cc1cc(C)c(S(=O)(=O)N(C2=NOC3(CCCCCCC3)C2)S(=O)(=O)c2c(C)cc(C)cc2C)c(C)c1 [4e, N-(Mesitylsulfonyl)-2,4,6-trimethyl-N-(1-oxa-2-azaspiro[4.7]dodec-2-en-3-yl)benzenesulfonamide] | 4.8 ± 1 | > 50 | > 50 | > 50 | 12 ± 7 | 180 to 182 | > 50 | 
O=S(=O)(NC1=NOC2(CCCCCCC2)C1)c1ccc(F)cc1F [3g] | 28.4 ± 2.2 | > 50 | > 50 | > 50 | > 100 |  | > 50 | 
O=S(=O)(NC1=NOC2(CCCCCCC2)C1)c1cccs1 [3k] | 6.1 ± 1.3 | > 50 | > 50 | > 50 | > 100 |  | > 50 | 
O=S(=O)(NC1=NOC2(CCCCCCC2)C1)c1cccnc1 [3l] | 11 ± 7 | > 50 | > 50 | > 50 | > 100 |  | > 50 | 
CS(=O)(=O)NC1=NOC2(CCCCCCC2)C1 [3a] | 31 ± 2 | > 50 | > 50 | > 50 | > 100 |  | > 50 | 
